The text below walks through data of patent US20150010928A1, “MEANS AND METHODS FOR ASSESSING AN ENDOCRINE DISEASE OR DISORDER” (priority 2012, published 2015).

This series concerns male rats. The series can be described thus: Plasma metabolite profiling (GC-MS, LC-MS, SPE-LC-MS) in male rats dosed once daily over 28 days (OECD 407). In kind it is in vivo, rat. The following applies: for Glucose, ratio versus control / Lysophosphatidylcholine (C20:4), ratio versus control / Threonic acid, ratio versus control: male rats, plasma, low dose. The procedure:
Each dose group in the studies consisted of five rats per sex. Additional groups of each 5 male and female animals served as controls. […] All animals of the animal population were kept under the same constant temperature (20-24±3° C.) and the same constant humidity (30-70%). The animals of the animal population were fed ad libitum. The food to be used was essentially free of chemical or microbial contaminants. Drinking water was also offered ad libitum. Accordingly, the water was free of chemical and microbial contaminants as laid down in the European Drinking Water Directive 98/83/EG. The illumination period was 12 hours light followed by 12 hours darkness (12 hours light, from 6:00 to 18:00, and 12 hours darkness, from 18:00 to 6:00). […] The test substances (compounds) in the Tables 1 to 17 below were dosed and administered as described in the Table 18.
In the morning of day 7, 14, and 28, blood was taken from the retroorbital venous plexus from fasted anaesthetized animals. From each animal, 1 ml of blood was collected with EDTA as anticoagulant. The samples were centrifuged for generation of plasma. All plasma samples were covered with a N2 atmosphere and then stored at −80° C. until analysis.
For mass spectrometry-based metabolite profiling analyses plasma samples were extracted and a polar and a non-polar (lipid) fraction was obtained. For GC-MS analysis, the non-polar fraction was treated with methanol under acidic conditions to yield the fatty acid methyl esters. Both fractions were further derivatised with O-methyl-hydroxyamine hydrochloride and pyridine to convert Oxogroups to O-methyloximes and subsequently with a silylating agent before analysis. In LC-MS analysis, both fractions were reconstituted in appropriate solvent mixtures. HPLC was performed by gradient elution on reversed phase separation columns. Mass spectrometric detection which allows target and high sensitivity MRM (Multiple Reaction Monitoring) profiling in parallel to a full screen analysis was applied as described in WO2003073464.
Steroids and their metabolites were measured by online SPE-LC-MS (Solid phase extraction-LC-MS).
Following comprehensive analytical validation steps, the data for each analyte were normalized against data from pool samples. These samples were run in parallel through the whole process to account for process variability. The significance of treatment group values specific for sex, treatmentduration and metabolite was determined by comparing means of the treated groups to the means of the respective untreated control groups using WELCH-test and quantified with treatment ratios versus control and p-values.
The identification of the most important biomarkers per toxicity pattern was done by a ranking of the analytes in the tables below. Therefore the metabolic changes in reference treatments of a given pattern (shown in the table) were compared with changes of the same metabolite in other unrelated treatments. […] The maximum absolute value of the respective TVALUE was taken to indicate the most important metabolite for the pattern.

Structures can show the parent of a compound that is named as a salt. Marks after values point to notes of the source that are not given here.

Turning to `OC(c1ccc(Cl)cc1)(c1cncnc1)c1ccccc1Cl` (stereo not drawn) [Fenarimol], where the note is “day 7”, the “Glucose, ratio versus control” value is recorded as 0.9; the “Lysophosphatidylcholine (C20:4), ratio versus control” value is reported as 0.99; the “Threonic acid, ratio versus control” value was 1.37 *. Moreover, for the setting “day 14”, the “Glucose, ratio versus control” value is listed as 0.9 *; the “Lysophosphatidylcholine (C20:4), ratio versus control” value was 0.96 *; the “Threonic acid, ratio versus control” value is 1.3 *. Further, for the setting “day 28”, the “Glucose, ratio versus control” value is given as 0.91 *; the “Lysophosphatidylcholine (C20:4), ratio versus control” value is given as 0.97 *; the “Threonic acid, ratio versus control” value was 1.34 *.
With `CNCCC(Oc1ccc(C(F)(F)F)cc1)c1ccccc1` (stereo not drawn) [Fluoxetine hydrochloride], where the note is “m7, high dose, Table 10a”, the “3-O-Methylsphingosine (d18:1)” value came out at 1.33, the “5-O-Methylsphingosine (d18:1)” value stood at 1.43, the Cysteine is 1.81 * and the “Lignoceric acid (C24:0)” value came out at 1.33. Under “m7, high dose, Table 10a”, the “Nervonic acid (C24:cis[15]1)” value stood at 1.37, the “Oleic acid (C18:cis[9]1)” value is recorded as 0.83, the “Stearic acid (C18:0)” value was 1.21 and the alpha-Tocopherol came to 1.37. For the same compound, the “threo-Sphingosine (d18:1)” value (m7, high dose, Table 10a) amounted to 1.2. For the same compound, for the setting “m7, high dose, Table 10b”, the “Oleic acid (C18:cis[9]1)” value was 0.83^; the “Phosphatidylcholine (C16:0, C16:0)” value is recorded as 0.99^; the “Thyroxine (T4)” value is 0.42 *; the trans-4-Hydroxyproline is reported as 0.87 *. In addition, where the note is “m14, high dose, Table 10a”, the “3-O-Methylsphingosine (d18:1)” value is recorded as 1.43^, the “5-O-Methylsphingosine (d18:1)” value is reported as 1.67 *, the Cysteine is 2.03 * and the “Oleic acid (C18:cis[9]1)” value was 0.88^. Further, for the setting “m14, high dose, Table 10a”, the “Stearic acid (C18:0)” value is on record as 1.2, the alpha-Tocopherol was 1.64 * and the “threo-Sphingosine (d18:1)” value was 1.45 *. Where the note is “m14, high dose, Table 10b”, the “Oleic acid (C18:cis[9]1)” value is 0.88 *, the “Thyroxine (T4)” value is recorded as 0.59^ and the trans-4-Hydroxyproline is listed as 0.83 *. Where the note is “m28, high dose, Table 10a”, the “3-O-Methylsphingosine (d18:1)” value is 2.23 *, the “5-O-Methylsphingosine (d18:1)” value is given as 2.39 *, the “Lignoceric acid (C24:0)” value is 1.79 * and the “Nervonic acid (C24:cis[15]1)” value is 1.57 *. Moreover, under “m28, high dose, Table 10a”, the “Oleic acid (C18:cis[9]1)” value is reported as 0.98^, the “Stearic acid (C18:0)” value is 1.42 *, the alpha-Tocopherol is 1.74 * and the “threo-Sphingosine (d18:1)” value is 2.2 *. In addition, under “m28, high dose, Table 10b”, the “Oleic acid (C18:cis[9]1)” value is listed as 0.98; the “Phosphatidylcholine (C16:0, C16:0)” value worked out at 0.99; the “Thyroxine (T4)” value came out at 0.72; the trans-4-Hydroxyproline is listed as 0.72 *. Besides, under “rat, in vivo”, the Cysteine is 1.37 *; the “Lignoceric acid (C24:0)” value is 1.35^; the “Nervonic acid (C24:cis[15]1)” value is 1.68^; the “Phosphatidylcholine (C16:0, C16:0)” value is reported as 1.03^.
